Results: PubChem BioAssay (NCI)
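Cultured in 96-well plates, cells were exposed to test compound for 48 hours across five concentrations. TGI denotes the concentration required for complete inhibition of growth.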 Square brackets hold non-standard residues; d marks the D form. Peptide text beside a SMILES is read from it. Phe(4-NO2) = N[CH](Cc1ccc([N+](=O)[O-])cc1)C(=O)O

Experiments:
Experiment in all cases: DTP human tumour cell line panel, 48 h
BT-549 breast = test system: BT-549 breast
HCT-15 colon = test system: HCT-15 colon
HOP-62 NSCLC = test system: HOP-62 NSCLC
MCF7 breast = test system: MCF7 breast
MOLT-4 leukemia = test system: MOLT-4 leukemia
OVCAR-4 ovarian = test system: OVCAR-4 ovarian
RPMI-8226 leukemia = test system: RPMI-8226 leukemia
SF-295 CNS = test system: SF-295 CNS
SK-OV-3 ovarian = test system: SK-OV-3 ovarian
U251 CNS = test system: U251 CNS
HL-60(TB) leukemia = test system: HL-60(TB) leukemia
M14 melanoma = test system: M14 melanoma

Compound	TGI (BT-549 breast)	TGI (HCT-15 colon)	TGI (HOP-62 NSCLC)	TGI (MCF7 breast)	TGI (MOLT-4 leukemia)	TGI (OVCAR-4 ovarian)	TGI (RPMI-8226 leukemia)	TGI (SF-295 CNS)	TGI (SK-OV-3 ovarian)	TGI (U251 CNS)	TGI (HL-60(TB) leukemia)	TGI (M14 melanoma)
C/C(=N\Nc1nc2ccccc2o1)c1cc2ccccc2cn1	3.23 µM	> 20.3 µM	15.6 µM	> 33.7 µM	> 46.3 µM	8.25 µM	> 20.7 µM	4.56 µM	8.15 µM	> 100 µM	–	–
CCN(CCCl)c1cc(CN(C)C)cc(NC(=O)c2ccc(C(=O)Nc3ccccc3)cc2)c1	–	4.53 µM	3.21 µM	2.79 µM	1.78 µM	1.87 µM	3.14 µM	12.4 µM	11.1 µM	–	0.695 µM	5.44 µM
COc1cc2c3cc1Oc1c(OC)c(OC)cc4c1C(Cc1ccc(O)c(c1)-c1cc(ccc1OC)CC3N(C)CC2)N(C)CC4 (stereo not drawn)	51.1 µM	25.4 µM	–	49 µM	74.2 µM	> 100 µM	–	39.4 µM	> 100 µM	> 100 µM	15.4 µM	15.5 µM
CC1=CC(=O)/C(=C/N2C(=O)CNC2=S)C(=O)O1	–	> 100 µM	> 100 µM	> 100 µM	> 100 µM	> 100 µM	–	> 100 µM	> 100 µM	> 100 µM	> 100 µM	> 100 µM
NC(Cc1ccc(O)cn1)C(=O)O (stereo not drawn)	> 100 µM	> 100 µM	> 100 µM	> 100 µM	> 100 µM	> 100 µM	> 100 µM	> 100 µM	–	> 100 µM	> 100 µM	–
NS(=O)(=O)c1ccc(N2C(=O)C(=O)N(c3ccccc3)C2=S)cc1	–	> 100 µM	> 100 µM	–	> 100 µM	> 100 µM	> 100 µM	> 100 µM	> 100 µM	> 100 µM	> 100 µM	–
COC(=O)CCC(NC(=O)C(CCC(=O)OC)NC(=O)C(CCC(=O)OC)NC(=O)C(CCC(=O)OC)NC(=O)C(CCC(=O)OC)NC(=O)C(Cc1ccc([N+](=O)[O-])cc1)NC(=O)C(CCC(=O)OC)NC(=O)C(CCC(=O)OC)NC(=O)C(CCC(=O)OC)NC(=O)C(CCC(=O)OC)NC(=O)C(CCC(=O)OC)NC(C)=O)C(N)=O (stereo not drawn) (Ac-E(OMe)E(OMe)E(OMe)E(OMe)E(OMe)[Phe(4-NO2)]E(OMe)E(OMe)E(OMe)E(OMe)E(OMe)-NH2; configuration not given here)	–	–	–	> 100 µM	> 100 µM	> 100 µM	> 100 µM	> 100 µM	> 100 µM	> 100 µM	–	> 100 µM
COc1ccc2c(c1)C=C(C(C)(C)C)NS2(=O)=O	–	> 100 µM	> 100 µM	–	> 100 µM	> 100 µM	–	> 100 µM	> 100 µM	> 100 µM	> 100 µM	> 100 µM
CCOC(OCC)[C@H](N)[C@@H](O)[C@@H](O)[C@H]1COC(C)(C)O1	–	> 100 µM	> 100 µM	> 100 µM	> 100 µM	> 100 µM	> 100 µM	> 100 µM	> 100 µM	> 100 µM	–	> 100 µM
COc1ccc(NS(=O)(=O)c2ccc(N=C3C=C(Nc4ccc(S(=O)(=O)Nc5ccc(OC)nn5)cc4)C(=O)c4ccccc43)cc2)nn1	–	32.4 µM	–	–	> 100 µM	50.4 µM	> 100 µM	32.1 µM	33.1 µM	33.2 µM	> 100 µM	31.3 µM
C=COC(=O)N1C2CCCC(Cl)(C(C)=O)C1CC2 (stereo not drawn)	> 100 µM	> 100 µM	> 100 µM	> 100 µM	> 100 µM	> 100 µM	> 100 µM	> 100 µM	> 100 µM	> 100 µM	–	> 100 µM
CC(C)(C)OC(=O)N1CCC(NC(=O)NC2CCN(C(=O)OC(C)(C)C)CC2)CC1	12.6 µM	> 100 µM	> 100 µM	> 100 µM	–	> 100 µM	> 100 µM	> 100 µM	–	> 100 µM	> 100 µM	> 100 µM
CN(C(=O)c1ccc(Cl)cc1)C(=S)N1CCN(c2ccccc2)CC1	> 100 µM	> 100 µM	–	> 100 µM	> 100 µM	> 100 µM	> 100 µM	> 100 µM	–	> 100 µM	> 100 µM	> 100 µM
S=C(S)N1CCN(c2ccccc2)CC1	> 100 µM	> 100 µM	> 100 µM	> 100 µM	–	–	77.3 µM	> 100 µM	–	> 100 µM	64.4 µM	> 100 µM
C=CC(C)(C)n1cc(C2=C(O)C(=O)C(c3c(CC=C(C)C)[nH]c4ccccc34)=C(O)C2=O)c2ccccc21	1.91 µM	7.6 µM	2.63 µM	–	9.51 µM	11.8 µM	–	4.1 µM	5.41 µM	3.33 µM	4.69 µM	4.24 µM
CCCCN1CCC(O)(c2cc(C(=O)O)[nH]c2-c2cc(C)no2)C1=O (stereo not drawn)	> 100 µM	> 100 µM	> 100 µM	> 100 µM	> 100 µM	> 100 µM	> 100 µM	> 100 µM	> 100 µM	> 100 µM	–	> 100 µM
CSS(C)(=O)=O	–	58.8 µM	> 100 µM	> 100 µM	10.1 µM	64.3 µM	5.36 µM	54.5 µM	–	> 100 µM	58.7 µM	74.7 µM
CCCCSC1=N/C(=C\c2ccc(N(C)C)cc2)C(Cl)=N1	> 100 µM	> 100 µM	> 100 µM	> 100 µM	> 100 µM	> 100 µM	> 100 µM	> 100 µM	> 100 µM	> 100 µM	–	> 100 µM
COc1cc(OC2OC(CO)C(O)C(O)C2O)c2c(c1)O[C@@H]1[C@H](O)Oc3cc(OC)c(OC)cc3[C@]1(O)C2=O (stereo partly drawn)	–	> 25 µM	> 25 µM	> 25 µM	> 25 µM	> 25 µM	> 25 µM	> 25 µM	> 25 µM	> 25 µM	> 25 µM	> 25 µM
